In general, Kb refers to the equilibrium dissociation constant of an antagonist, usually derived from a functional assay. A low value points to higher antagonist affinity.

The conditions of data set [1]: background statement; cited from earlier work.
The target of data set [2] is T1, histamine-H2-receptors (Cavia porcellus, UniProt P47747).
T1 construct: in vitro on the isolated atrium of guinea pigs; from tissue; host or cells: isolated guinea pig atrium
Put plainly: pA2 determination of H2-antagonistic activity in vitro on the isolated atrium of guinea pigs. The settings on record: isolated guinea pig atrium. From the text:
A recognized method of measuring H2 -antagonistic activity is based on determination of the pA2 -values in vitro on the isolated atrium of guinea pigs (cf. Ariens, Molecular Pharmacology, Vol. 1, Academic Press, New York, 1964).

T1 sequence (P47747 whole entry): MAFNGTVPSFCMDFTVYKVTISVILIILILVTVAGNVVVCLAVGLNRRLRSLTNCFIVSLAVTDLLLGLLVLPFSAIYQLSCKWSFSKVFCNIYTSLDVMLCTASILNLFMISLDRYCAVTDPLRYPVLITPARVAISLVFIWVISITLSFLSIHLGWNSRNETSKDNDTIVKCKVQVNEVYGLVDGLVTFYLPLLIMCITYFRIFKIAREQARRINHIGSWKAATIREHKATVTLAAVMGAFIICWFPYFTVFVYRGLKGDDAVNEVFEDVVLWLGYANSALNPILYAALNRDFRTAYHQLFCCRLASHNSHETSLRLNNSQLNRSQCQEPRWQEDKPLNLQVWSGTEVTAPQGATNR

`CN/C(=N/CCSCc1nc[nH]c1C)NC#N` [Cimetidine, cimetidine]: in data set [1], the half life entry is “relatively short half life”. Consider `Cc1ccc(Cc2cnc(CCCCOc3cccc(CN4CCCCC4)c3)[nH]c2=O)cn1` [Example 1, 5-(6-methylpyrid-3-ylmethyl)-2-[4-[3-(1-piperidylmethyl)-phenoxy]-butyl]-pyrimidin-4-one], for which the Kb in data set [2] is 0.0219 µM.
